Data from article PMC9090415, “Discovery of small molecule inhibitors of Plasmodium falciparum apicoplast DNA polymerase” (Journal of Enzyme Inhibition and Medicinal Chemistry, 2022).

Biological target: T1, bacteriophage T4 DNA polymerase (Enterobacteria phage T4, UniProt P04415)
T1 construct: made in house
T1 sequence (P04415 1-898): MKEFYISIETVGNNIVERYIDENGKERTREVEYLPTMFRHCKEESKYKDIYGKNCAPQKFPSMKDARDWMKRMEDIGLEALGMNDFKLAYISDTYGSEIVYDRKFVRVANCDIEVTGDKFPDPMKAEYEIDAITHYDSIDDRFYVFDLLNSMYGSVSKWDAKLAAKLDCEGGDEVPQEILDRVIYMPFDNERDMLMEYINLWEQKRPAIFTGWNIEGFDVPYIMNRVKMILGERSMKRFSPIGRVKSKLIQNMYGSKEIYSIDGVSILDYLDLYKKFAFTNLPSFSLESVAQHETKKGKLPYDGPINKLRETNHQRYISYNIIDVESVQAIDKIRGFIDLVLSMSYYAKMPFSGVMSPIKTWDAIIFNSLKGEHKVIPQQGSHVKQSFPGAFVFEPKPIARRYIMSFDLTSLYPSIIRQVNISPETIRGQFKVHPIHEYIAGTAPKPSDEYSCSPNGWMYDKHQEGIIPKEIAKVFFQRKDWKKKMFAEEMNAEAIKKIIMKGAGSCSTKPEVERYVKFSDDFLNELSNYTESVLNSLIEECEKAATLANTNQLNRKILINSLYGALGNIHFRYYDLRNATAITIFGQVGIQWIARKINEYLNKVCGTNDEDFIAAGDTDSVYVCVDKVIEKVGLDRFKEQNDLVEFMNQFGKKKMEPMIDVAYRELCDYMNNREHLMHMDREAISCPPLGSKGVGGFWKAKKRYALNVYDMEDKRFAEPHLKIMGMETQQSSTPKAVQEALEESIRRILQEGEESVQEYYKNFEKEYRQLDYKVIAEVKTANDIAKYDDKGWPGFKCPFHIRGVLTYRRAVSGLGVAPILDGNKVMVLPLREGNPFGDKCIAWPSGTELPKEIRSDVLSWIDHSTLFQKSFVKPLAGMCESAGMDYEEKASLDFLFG
Test: Counter-screen against bacteriophage T4 DNA polymerase
Format: biochemical
Conditions: for % inhibition T4 10' 2.5 / % inhibition T4 10' 5 / % inhibition T4 10' 10 / % inhibition T4 10' 20 / % inhibition T4 10' 40 / % inhibition T4 10' 80: read at 10'; for % inhibition T4 70' 2.5 / % inhibition T4 70' 5 / % inhibition T4 70' 10 / % inhibition T4 70' 20 / % inhibition T4 70' 40 / % inhibition T4 70' 80: read at 70'; for % inhibition T4 130' 2.5 / % inhibition T4 130' 5 / % inhibition T4 130' 10 / % inhibition T4 130' 20 / % inhibition T4 130' 40 / % inhibition T4 130' 80: read at 130'; for % inhibition T4 40' 2.5 / % inhibition T4 40' 5 / % inhibition T4 40' 10 / % inhibition T4 40' 20 / % inhibition T4 40' 40 / % inhibition T4 40' 80: read at 40'; for % inhibition T4 90' 2.5 / % inhibition T4 90' 5 / % inhibition T4 90' 10 / % inhibition T4 90' 20 / % inhibition T4 90' 40 / % inhibition T4 90' 80: read at 90'; for % inhibition T4 180' 2.5 / % inhibition T4 180' 5 / % inhibition T4 180' 10 / % inhibition T4 180' 20 / % inhibition T4 180' 40 / % inhibition T4 180' 80: read at 180'
Summary of the method: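 Purified T4 DNA polymerase, a B-family enzyme, served as the counter-screen enzyme. Compounds were tested in dose-response format and IC50 values were derived.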

## COc1cccc(C(=O)N2CCc3c(nc4cc(-c5ccccc5)[nH]n4c3=O)C2)c1OC [Molecule 22, COc1c(OC)cccc1C(=O)N1CCc2c(C1)nc1n(c2=O)[nH]c(c1)c1ccccc1]
DRC-2, concentration 40
  % inhibition T4 10': -28%
  % inhibition T4 40': -28%
  % inhibition T4 90': -28%
  % inhibition T4 180': -29%
DRC-2, concentration 80
  % inhibition T4 10': -28%
  % inhibition T4 40': -27%
DRC-2, concentration 2.5
  % inhibition T4 40': -13%
  % inhibition T4 90': -11%
  % inhibition T4 180': -11%
DRC-2, concentration 10
  % inhibition T4 90': -29%
  % inhibition T4 180': -27%
DRC-2, concentration 20
  % inhibition T4 180': -29%

## O=C(c1c[nH]c2ncccc12)N1CCCC1 [Molecule 63, O=C(c1c[nH]c2c1cccn2)N1CCCC1]
DRC-2, concentration 20
  % inhibition T4 10': 25%
  % inhibition T4 40': 25%
DRC-2, concentration 40
  % inhibition T4 10': 31%
  % inhibition T4 90': 31%

## C#CC(C=CC)OC(=O)c1ccccc1C(=O)O (centres unmarked) [Molecule 61, CC=CC(OC(=O)c1ccccc1C(=O)O)C#C]
DRC-1, concentration 2.5
  % inhibition T4 10' 2.5: 9.3785%
  % inhibition T4 70' 2.5: 5.999%
  % inhibition T4 130' 2.5: 3.358%
DRC-1, concentration 5
  % inhibition T4 10' 5: 11.31%
  % inhibition T4 70' 5: 5.822%
  % inhibition T4 130' 5: 2.079%
DRC-1, concentration 10
  % inhibition T4 10' 10: 22.4398%
  % inhibition T4 70' 10: 15.1139%
  % inhibition T4 130' 10: 10.4202%
DRC-1, concentration 20
  % inhibition T4 10' 20: 21.3205%
  % inhibition T4 70' 20: 11.2187%
  % inhibition T4 130' 20: 6.447%
DRC-1, concentration 40
  % inhibition T4 10' 40: 28.2089%
  % inhibition T4 70' 40: 17.6446%
  % inhibition T4 130' 40: 13.4652%
DRC-1, concentration 80
  % inhibition T4 10' 80: 28.2741%
  % inhibition T4 70' 80: 16.7862%
  % inhibition T4 130' 80: 12.4594%
DRC-2, concentration 2.5
  % inhibition T4 10' 2.5: -4.4%
  % inhibition T4 40' 2.5: -4.37%
  % inhibition T4 90' 2.5: -3.79%
  % inhibition T4 180' 2.5: -5.62%
DRC-2, concentration 5
  % inhibition T4 10' 5: -3%
  % inhibition T4 40' 5: -3.69%
  % inhibition T4 90' 5: -6%
  % inhibition T4 180' 5: -11%
DRC-2, concentration 10
  % inhibition T4 10' 10: 4%
  % inhibition T4 40' 10: 2%
  % inhibition T4 90' 10: 0.277%
  % inhibition T4 180' 10: -7%
DRC-2, concentration 20
  % inhibition T4 10' 20: 6.52%
  % inhibition T4 40' 20: 3.35%
  % inhibition T4 90' 20: 0.217%
  % inhibition T4 180' 20: -5.56%
DRC-2, concentration 40
  % inhibition T4 10' 40: 12%
  % inhibition T4 40' 40: 9%
  % inhibition T4 90' 40: 6%
  % inhibition T4 180' 40: -0.544%
DRC-2, concentration 80
  % inhibition T4 10' 80: 8%
  % inhibition T4 40' 80: 4.65%
  % inhibition T4 90' 80: 0.315%
  % inhibition T4 180' 80: -3.3%

## O=C1N=C(Nc2cccc(Cl)c2Cl)S/C1=C\c1ccco1 [Molecule 3, O=C1N=C(S/C/1=C\c1ccco1)Nc1cccc(c1Cl)Cl]
DRC-2, concentration 2.5
  % inhibition T4 10': 26%
  % inhibition T4 40': 26%
DRC-2, concentration 5
  % inhibition T4 10': 29%
  % inhibition T4 40': 29%
  % inhibition T4 90': 27%
DRC-2, concentration 20
  % inhibition T4 10': 30%
  % inhibition T4 40': 30%
  % inhibition T4 90': 30%
  % inhibition T4 180': 27%
DRC-2, concentration 40
  % inhibition T4 10': 29%
  % inhibition T4 40': 29%
  % inhibition T4 90': 30%
  % inhibition T4 180': 30%
DRC-2, concentration 80
  % inhibition T4 10': 13%
  % inhibition T4 40': 13%
DRC-2, concentration 10
  % inhibition T4 180': 29%

## O=C(O)CCS(=O)(=O)c1ccc(-c2ccc(S(=O)(=O)CCC(=O)O)cc2)cc1 [Molecule 32, OC(=O)CCS(=O)(=O)c1ccc(cc1)c1ccc(cc1)S(=O)(=O)CCC(=O)O]
DRC-2, concentration 2.5
  % inhibition T4 10': -14%
  % inhibition T4 180': -25%
DRC-2, concentration 20
  % inhibition T4 40': -22%
  % inhibition T4 90': -25%
DRC-2, concentration 40
  % inhibition T4 40': -14%
  % inhibition T4 90': -17%
  % inhibition T4 180': -22%
DRC-2, concentration 5
  % inhibition T4 90': -25%
DRC-2, concentration 80
  % inhibition T4 180': -17%

## Cn1nc(-c2nc(-c3ccccc3)no2)c2c1CCN(C(=O)Cc1cccs1)C2 [Molecule 58, O=C(N1CCc2c(C1)c(nn2C)c1onc(n1)c1ccccc1)Cc1cccs1]
DRC-1, concentration 2.5
  % inhibition T4 10' 2.5: 2%
  % inhibition T4 70' 2.5: -0.863%
  % inhibition T4 130' 2.5: -2.41%
DRC-1, concentration 5
  % inhibition T4 10' 5: 6%
  % inhibition T4 70' 5: 0.684%
  % inhibition T4 130' 5: -0.486%
DRC-1, concentration 10
  % inhibition T4 10' 10: 20%
  % inhibition T4 70' 10: 13%
  % inhibition T4 130' 10: 9%
DRC-1, concentration 20
  % inhibition T4 10' 20: 24%
  % inhibition T4 70' 20: 17%
  % inhibition T4 130' 20: 14%
DRC-1, concentration 40
  % inhibition T4 10' 40: 35%
  % inhibition T4 70' 40: 26%
  % inhibition T4 130' 40: 24%
DRC-1, concentration 80
  % inhibition T4 10' 80: 33%
  % inhibition T4 70' 80: 37%
  % inhibition T4 130' 80: 33%
DRC-2, concentration 2.5
  % inhibition T4 10' 2.5: 2.64%
  % inhibition T4 40' 2.5: 2.18%
  % inhibition T4 90' 2.5: 2.76%
  % inhibition T4 180' 2.5: -1.52%
DRC-2, concentration 5
  % inhibition T4 10' 5: 8%
  % inhibition T4 40' 5: 6.41%
  % inhibition T4 90' 5: 7%
  % inhibition T4 180' 5: 1.9%
DRC-2, concentration 10
  % inhibition T4 10' 10: 17%
  % inhibition T4 40' 10: 17%
  % inhibition T4 90' 10: 17%
  % inhibition T4 180' 10: 13%
DRC-2, concentration 20
  % inhibition T4 10' 20: 20%
  % inhibition T4 40' 20: 22%
  % inhibition T4 90' 20: 21%
  % inhibition T4 180' 20: 15%
DRC-2, concentration 40
  % inhibition T4 10' 40: 23%
  % inhibition T4 40' 40: 27%
  % inhibition T4 90' 40: 24%
  % inhibition T4 180' 40: 20%
DRC-2, concentration 80
  % inhibition T4 10' 80: 20%
  % inhibition T4 40' 80: 25%
  % inhibition T4 90' 80: 22%
  % inhibition T4 180' 80: 20%

## CC1(C)CC(=O)C2=C(C1)OC1=C(C(=O)CC(C)(C)C1)C2c1ccc(O)cc1 [KU0194226]
DRC-2, concentration 40
  % inhibition T4 10': 18%
  % inhibition T4 40': 12%
  % inhibition T4 90': 12%
  % inhibition T4 180': 12%
DRC-2, concentration 5
  % inhibition T4 40': 17%
  % inhibition T4 180': 12%
DRC-2, concentration 10
  % inhibition T4 40': 18%
  % inhibition T4 90': 17%
DRC-2, concentration 80
  % inhibition T4 40': 30%
  % inhibition T4 90': 30%
  % inhibition T4 180': 30%
DRC-2, concentration 2.5
  % inhibition T4 180': 18%
